Data as given in US8629273B2, “Diazinylpyrazolyl compounds” (Bayer Intellectual Property GmbH, priority 2009, dated 2014).

Tested on: Ctenocephalides felis
Test: Ctenocephalides felis oral (CTECFE)
Assay type: in vivo
Conditions: 100 ppm in citrated cattle blood, after 2 days
How it was run: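 Twenty unfed adult fleas fed through parafilm on citrated cattle blood containing compound, diluted from a DMSO concentrate (10 mg per 0.5 ml). Kill % scored after 2 days (100% = all dead, 0% = none).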

Compound	kill [%]
CCOC=Nc1c(-c2cc(Cl)c3c(c2)OCO3)c(C(F)(F)C(F)F)nn1-c1ncccn1 [Example 1-35]	100
CCOC=Nc1c(-c2cc(Cl)cc(C(F)(F)F)c2)c(C(F)(F)C(F)F)nn1-c1ncccn1 [Example 1-34]	80
CCCCOC=Nc1c(-c2cc(Cl)cc(C(F)(F)F)c2)c(C(F)(F)F)nn1-c1ncccn1 [Example 1-15]	100
FC(F)(F)c1nn(-c2ncccn2)c(N=Cc2ccccc2)c1-c1cc(Cl)c2c(c1)OCO2 [Example 1-18]	100
CCOC=Nc1c(-c2cc(Cl)c3c(c2)OCO3)c(C(F)(F)F)nn1-c1nccnc1OC [Example 2-18]	100

Tested on: green peach affid (Myzus persicae)
Test: Myzus test (MYZUPE spray treatment)
Assay type: in vivo
Conditions: 100 g/ha, after 6 days
Procedure: Solvents: 78 parts by weight of acetone
• 1.5 parts by weight of dimethyl formamide Emulsifier: 0.5 part by weight of alkylaryl polyglycol ether
To produce a suitable preparation of active compound, 1 part by weight of active compound is mixed with the stated amounts of solvent and emulsifier, and the concentrate is diluted with emulsifier-containing water to the desired concentration.
Discs of Chinese cabbage leaves (Brassica pekinensis) infested by all stages of the green peach affid (Myzus persicae) are sprayed with an active compound preparation of the desired concentration.
After 6 days, the activity in % is determined. 100% means that all affids have been killed; 0% means that none of the affids have been killed.

Compound	activity (affids killed) [%]
CCOC=Nc1c(-c2cc(Cl)cc(C(F)(F)F)c2)c(C(F)(F)C(F)F)nn1-c1ncccn1 [Example 1-34]	90
CCCCOC=Nc1c(-c2cc(Cl)cc(C(F)(F)F)c2)c(C(F)(F)F)nn1-c1ncccn1 [Example 1-15]	80
CCOC=Nc1c(-c2cc(Cl)c3c(c2)OCO3)c(C(F)(F)F)nn1-c1nccnc1OC [Example 2-18]	100

Tested on: Boophilus microplus strain Parkhurst (SP-resistant)
Test: Boophilus microplus test (DIP)
Assay type: in vivo
Conditions: 100 ppm
Procedure: Test animals: adult fed females of the Boophilus microplus strain Parkhurst (SP-resistant)
Solvent: Dimethyl sulphoxide
10 mg of active compound are dissolved in 0.5 ml of dimethyl sulphoxide. To produce a suitable formulation, the active compound solution is diluted with water to the particular desired concentration. This active compound preparation is pipetted into tubes. 8-10 ticks are transferred into a further tube provided with holes. The tube is dipped into the active compound preparation, with all ticks being wetted completely. After the liquid has run off, the ticks are transferred to filter discs in plastic dishes and kept in a climatized room. After the desired period of time, the activity is checked for deposition of fertile eggs. Eggs whose fertility is not visible from the outside are kept in glass tubes in a climatized cupboard under the larvae have hatched. An activity of 100% means that no tick has laid fertile eggs.

Compound	activity (no deposition of fertile eggs) [%]
CCOC=Nc1c(-c2cc(Cl)c3c(c2)OCO3)c(C(F)(F)C(F)F)nn1-c1ncccn1 [Example 1-35]	100
FC(F)(F)c1nn(-c2ncccn2)c(N=Cc2ccccc2)c1-c1cc(Cl)c2c(c1)OCO2 [Example 1-18]	100
CCOC=Nc1c(-c2cc(Cl)c3c(c2)OCO3)c(C(F)(F)F)nn1-c1nccnc1OC [Example 2-18]	100

Tested on: greenhouse red spider mite (Tetranychus urticae)
Test: Tetranychus test, OP resistant (TETRUR spray treatment)
Assay type: in vivo
Conditions: 20 g/ha, after 6 days
Procedure: Solvents: 78.0 parts by weight of acetone • • 1.5 parts by weight of dimethyl formamide Emulsifier: 0.5 part by weight of alkylaryl polyglycol ether To produce a suitable preparation of active compound, 1 part by weight of active compound is mixed with the stated amounts of solvent and emulsifier, and the concentrate is diluted with emulsifier-containing water to the desired concentration. Discs of bean leaves (Phaseolus vulgaris) which are infested by all stages of the greenhouse red spider mite (Tetranychus urticae) are sprayed with an active compound preparation of the desired concentration. After 6 days, the activity in % is determined. 100% means that all spider mites have been killed; 0% means that none of the spider mites has been killed. The test was carried out and evaluated as described in Example B.7.

Compound	activity (spider mites killed)
FC(F)(F)c1nn(-c2ncccn2)c(N=Cc2ccccc2)c1-c1cc(Cl)c2c(c1)OCO2 [Example 1-18]	at least 90%

Same assay, conditions: 100 g/ha, after 6 days

Compound	activity (spider mites killed) [%]
CCOC=Nc1c(-c2cc(Cl)c3c(c2)OCO3)c(C(F)(F)C(F)F)nn1-c1ncccn1 [Example 1-35]	90
CCOC=Nc1c(-c2cc(Cl)cc(C(F)(F)F)c2)c(C(F)(F)C(F)F)nn1-c1ncccn1 [Example 1-34]	100
CCCCOC=Nc1c(-c2cc(Cl)cc(C(F)(F)F)c2)c(C(F)(F)F)nn1-c1ncccn1 [Example 1-15]	100
FC(F)(F)c1nn(-c2ncccn2)c(N=Cc2ccccc2)c1-c1cc(Cl)c2c(c1)OCO2 [Example 1-18]	90
CCOC=Nc1c(-c2cc(Cl)c3c(c2)OCO3)c(C(F)(F)F)nn1-c1nccnc1OC [Example 2-18]	100

Tested on: Lucilia cuprina larvae
Test: Lucilia cuprina test (LUCICU)
Assay type: in vivo
Conditions: 100 ppm, treated horse meat, after 2 days
How it was run: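 Horse meat treated with compound diluted in water from DMSO concentrate, then populated with larvae. Mortality scored after 2 days as percent kill, 100% meaning all larvae dead.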

Compound	kill [%]
CCOC=Nc1c(-c2cc(Cl)c3c(c2)OCO3)c(C(F)(F)C(F)F)nn1-c1ncccn1 [Example 1-35]	100
CCOC=Nc1c(-c2cc(Cl)cc(C(F)(F)F)c2)c(C(F)(F)C(F)F)nn1-c1ncccn1 [Example 1-34]	100
CCCCOC=Nc1c(-c2cc(Cl)cc(C(F)(F)F)c2)c(C(F)(F)F)nn1-c1ncccn1 [Example 1-15]	100
FC(F)(F)c1nn(-c2ncccn2)c(N=Cc2ccccc2)c1-c1cc(Cl)c2c(c1)OCO2 [Example 1-18]	100
CCOC=Nc1c(-c2cc(Cl)c3c(c2)OCO3)c(C(F)(F)F)nn1-c1nccnc1OC [Example 2-18]	100

Tested on: not listed separately
Test: logP by HPLC on reversed-phase columns (C 18), EU Guideline 79/831 Annex V.A8
Assay type: physicochemical
Conditions: ** LC-MS in the neutral range, pH 7.8, 0.001 molar aqueous ammonium bicarbonate and acetonitrile

Compound	logP
CCOC=Nc1c(-c2cc(Cl)c3c(c2)OCO3)c(C(F)(F)C(F)F)nn1-c1ncccn1 [Example 1-35]	3.42**
CCOC=Nc1c(-c2cc(Cl)cc(C(F)(F)F)c2)c(C(F)(F)C(F)F)nn1-c1ncccn1 [Example 1-34]	4.43**
CCCCOC=Nc1c(-c2cc(Cl)cc(C(F)(F)F)c2)c(C(F)(F)F)nn1-c1ncccn1 [Example 1-15]	5.24**
FC(F)(F)c1nn(-c2ncccn2)c(N=Cc2ccccc2)c1-c1cc(Cl)c2c(c1)OCO2 [Example 1-18]	3.97**
CCOC=Nc1c(-c2cc(Cl)c3c(c2)OCO3)c(C(F)(F)F)nn1-c1nccnc1OC [Example 2-18]	4.03**

Tested on: adult Musca domestica
Test: Musca domestica test (MUSCDO)
Assay type: in vivo
Conditions: 20 ppm, treated sponge
Procedure: Solvent: Dimethyl sulphoxide To prepare a suitable preparation of active compound, 10 mg of active component are mixed with 0.5 ml of dimethyl sulphoxide, and the concentrate is diluted with water to the desired concentration. Vessels containing a sponge which had been treated with the active compound preparation of the desired concentration are populated with adult Musca domestica. After the desired period of time, the kill in % is determined. 100% means that all flies have been killed; 0% means that none of the flies have been killed.

Compound	kill [%]
CCOC=Nc1c(-c2cc(Cl)c3c(c2)OCO3)c(C(F)(F)C(F)F)nn1-c1ncccn1 [Example 1-35]	100
FC(F)(F)c1nn(-c2ncccn2)c(N=Cc2ccccc2)c1-c1cc(Cl)c2c(c1)OCO2 [Example 1-18]	80

Same assay, conditions: 100 ppm, treated sponge

Compound	kill [%]
CCOC=Nc1c(-c2cc(Cl)cc(C(F)(F)F)c2)c(C(F)(F)C(F)F)nn1-c1ncccn1 [Example 1-34]	100
CCCCOC=Nc1c(-c2cc(Cl)cc(C(F)(F)F)c2)c(C(F)(F)F)nn1-c1ncccn1 [Example 1-15]	80

Tested on: caterpillars of the army worm (Spodoptera frugiperda)
Test: Spodoptera frugiperda test (SPODFR spray treatment)
Assay type: in vivo
Conditions: 20 g/ha, after 7 days
Procedure: Solvents: 78.0 parts by weight of acetone • • 1.5 parts by weight of dimethyl formamide Emulsifier: 0.5 part by weight of alkylaryl polyglycol ether To produce a suitable preparation of active compound, 1 part by weight of active compound is mixed with the stated amounts of solvent and emulsifier, and the concentrate is diluted with emulsifier-containing water to the desired concentration. Discs of maize leaves (Zea mays) are sprayed with an active compound preparation of the desired concentration and, after drying, populated with caterpillars of the army worm (Spodoptera frugiperda). After 7 days, the activity in % is determined. 100% means that all caterpillars have been killed; 0% means that none of the caterpillars have been killed. The test was carried out and evaluated as described in Example B.5.

Compound	activity (caterpillars killed) [%]
FC(F)(F)c1nn(-c2ncccn2)c(N=Cc2ccccc2)c1-c1cc(Cl)c2c(c1)OCO2 [Example 1-18]	67

Same assay, conditions: 100 g/ha, after 7 days

Compound	activity (caterpillars killed) [%]
CCOC=Nc1c(-c2cc(Cl)c3c(c2)OCO3)c(C(F)(F)C(F)F)nn1-c1ncccn1 [Example 1-35]	100
CCOC=Nc1c(-c2cc(Cl)cc(C(F)(F)F)c2)c(C(F)(F)C(F)F)nn1-c1ncccn1 [Example 1-34]	100
CCCCOC=Nc1c(-c2cc(Cl)cc(C(F)(F)F)c2)c(C(F)(F)F)nn1-c1ncccn1 [Example 1-15]	100
FC(F)(F)c1nn(-c2ncccn2)c(N=Cc2ccccc2)c1-c1cc(Cl)c2c(c1)OCO2 [Example 1-18]	100
CCOC=Nc1c(-c2cc(Cl)c3c(c2)OCO3)c(C(F)(F)F)nn1-c1nccnc1OC [Example 2-18]	100

Tested on: larvae of the mustard beetle (Phaedon cochleariae)
Test: Phaedon test (PHAECO spray treatment)
Assay type: in vivo
Conditions: 100 g/ha, after 7 days
How it was run: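 Chinese cabbage leaf discs were sprayed with compound formulated in acetone/dimethyl formamide plus alkylaryl polyglycol ether emulsifier, diluted in emulsifier-containing water to the desired concentration. After drying, discs were infested with mustard beetle larvae. Mortality (%) was scored after 7 days, where 100% means all larvae killed.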

Compound	activity (beetle larvae killed) [%]
CCOC=Nc1c(-c2cc(Cl)c3c(c2)OCO3)c(C(F)(F)C(F)F)nn1-c1ncccn1 [Example 1-35]	100
CCOC=Nc1c(-c2cc(Cl)cc(C(F)(F)F)c2)c(C(F)(F)C(F)F)nn1-c1ncccn1 [Example 1-34]	100
CCCCOC=Nc1c(-c2cc(Cl)cc(C(F)(F)F)c2)c(C(F)(F)F)nn1-c1ncccn1 [Example 1-15]	100
FC(F)(F)c1nn(-c2ncccn2)c(N=Cc2ccccc2)c1-c1cc(Cl)c2c(c1)OCO2 [Example 1-18]	100
CCOC=Nc1c(-c2cc(Cl)c3c(c2)OCO3)c(C(F)(F)F)nn1-c1nccnc1OC [Example 2-18]	100

Tested on: Boophilus microplus
Test: Boophilus microplus test (BOOPMI injection)
Assay type: in vivo
Conditions: 20 μg/animal, injected into the abdomen, after 7 days
How it was run: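 Compound dissolved in DMSO, diluted with water and injected into the tick abdomen; ticks kept in a climatized room. Fertile egg deposition assessed after 7 days; 100% means no tick laid fertile eggs.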

Compound	activity (no deposition of fertile eggs) [%]
CCOC=Nc1c(-c2cc(Cl)c3c(c2)OCO3)c(C(F)(F)C(F)F)nn1-c1ncccn1 [Example 1-35]	100
CCOC=Nc1c(-c2cc(Cl)cc(C(F)(F)F)c2)c(C(F)(F)C(F)F)nn1-c1ncccn1 [Example 1-34]	100
CCCCOC=Nc1c(-c2cc(Cl)cc(C(F)(F)F)c2)c(C(F)(F)F)nn1-c1ncccn1 [Example 1-15]	100
FC(F)(F)c1nn(-c2ncccn2)c(N=Cc2ccccc2)c1-c1cc(Cl)c2c(c1)OCO2 [Example 1-18]	100
CCOC=Nc1c(-c2cc(Cl)c3c(c2)OCO3)c(C(F)(F)F)nn1-c1nccnc1OC [Example 2-18]	100
